This is an account of results in patent US20240398784A1, “C-LINKED ISOQUINOLINE AMIDES AS LRRK2 INHIBITORS, PHARMACEUTICAL COMPOSITIONS, AND USES THEREOF” (Merck Sharp & Dohme LLC, priority 2021, published 2024).

Each structure is given as a SMILES string.

This assay deals with LRRK2 G2019S (Homo sapiens, UniProt Q5S007, G2019S). Nature of the assay: LRRK2 G2019S Km ATP LanthaScreen assay. The format is biochemical. The settings on record: read-out: LRRK2 pIC50 (converted). How it is done: Unless otherwise noted, all reactions are magnetically stirred. Unless otherwise noted, when diethyl ether is used in the experiments described below, it is Fisher ACS certified material and is stabilized with BHT. Unless otherwise noted, “concentrated” and/or “solvent removed under reduced pressure” means evaporating the solvent from a solution or mixture using a rotary evaporator or vacuum pump. Unless otherwise noted, flash chromatography is carried out on a Teledyne Isco (Lincoln, NE), Analogix (Burlington, WI), or Biotage (Stockholm, SWE) automated chromatography system using a commercially available cartridge as the column. Columns may be purchased from Teledyne Isco, Analogix, Biotage, Varian (Palo Alto, CA), or Supelco (Bellefonte, PA) and are usually filled with silica gel as the stationary phase. Reverse phase prep-HPLC conditions, where used, can be found at the end of each experimental section. Aqueous solutions were concentrated on a Genevac (Ipswich, ENG) or by freeze-drying/lyophilization.
Chain of LRRK2 G2019S (Q5S007 whole entry G2019S): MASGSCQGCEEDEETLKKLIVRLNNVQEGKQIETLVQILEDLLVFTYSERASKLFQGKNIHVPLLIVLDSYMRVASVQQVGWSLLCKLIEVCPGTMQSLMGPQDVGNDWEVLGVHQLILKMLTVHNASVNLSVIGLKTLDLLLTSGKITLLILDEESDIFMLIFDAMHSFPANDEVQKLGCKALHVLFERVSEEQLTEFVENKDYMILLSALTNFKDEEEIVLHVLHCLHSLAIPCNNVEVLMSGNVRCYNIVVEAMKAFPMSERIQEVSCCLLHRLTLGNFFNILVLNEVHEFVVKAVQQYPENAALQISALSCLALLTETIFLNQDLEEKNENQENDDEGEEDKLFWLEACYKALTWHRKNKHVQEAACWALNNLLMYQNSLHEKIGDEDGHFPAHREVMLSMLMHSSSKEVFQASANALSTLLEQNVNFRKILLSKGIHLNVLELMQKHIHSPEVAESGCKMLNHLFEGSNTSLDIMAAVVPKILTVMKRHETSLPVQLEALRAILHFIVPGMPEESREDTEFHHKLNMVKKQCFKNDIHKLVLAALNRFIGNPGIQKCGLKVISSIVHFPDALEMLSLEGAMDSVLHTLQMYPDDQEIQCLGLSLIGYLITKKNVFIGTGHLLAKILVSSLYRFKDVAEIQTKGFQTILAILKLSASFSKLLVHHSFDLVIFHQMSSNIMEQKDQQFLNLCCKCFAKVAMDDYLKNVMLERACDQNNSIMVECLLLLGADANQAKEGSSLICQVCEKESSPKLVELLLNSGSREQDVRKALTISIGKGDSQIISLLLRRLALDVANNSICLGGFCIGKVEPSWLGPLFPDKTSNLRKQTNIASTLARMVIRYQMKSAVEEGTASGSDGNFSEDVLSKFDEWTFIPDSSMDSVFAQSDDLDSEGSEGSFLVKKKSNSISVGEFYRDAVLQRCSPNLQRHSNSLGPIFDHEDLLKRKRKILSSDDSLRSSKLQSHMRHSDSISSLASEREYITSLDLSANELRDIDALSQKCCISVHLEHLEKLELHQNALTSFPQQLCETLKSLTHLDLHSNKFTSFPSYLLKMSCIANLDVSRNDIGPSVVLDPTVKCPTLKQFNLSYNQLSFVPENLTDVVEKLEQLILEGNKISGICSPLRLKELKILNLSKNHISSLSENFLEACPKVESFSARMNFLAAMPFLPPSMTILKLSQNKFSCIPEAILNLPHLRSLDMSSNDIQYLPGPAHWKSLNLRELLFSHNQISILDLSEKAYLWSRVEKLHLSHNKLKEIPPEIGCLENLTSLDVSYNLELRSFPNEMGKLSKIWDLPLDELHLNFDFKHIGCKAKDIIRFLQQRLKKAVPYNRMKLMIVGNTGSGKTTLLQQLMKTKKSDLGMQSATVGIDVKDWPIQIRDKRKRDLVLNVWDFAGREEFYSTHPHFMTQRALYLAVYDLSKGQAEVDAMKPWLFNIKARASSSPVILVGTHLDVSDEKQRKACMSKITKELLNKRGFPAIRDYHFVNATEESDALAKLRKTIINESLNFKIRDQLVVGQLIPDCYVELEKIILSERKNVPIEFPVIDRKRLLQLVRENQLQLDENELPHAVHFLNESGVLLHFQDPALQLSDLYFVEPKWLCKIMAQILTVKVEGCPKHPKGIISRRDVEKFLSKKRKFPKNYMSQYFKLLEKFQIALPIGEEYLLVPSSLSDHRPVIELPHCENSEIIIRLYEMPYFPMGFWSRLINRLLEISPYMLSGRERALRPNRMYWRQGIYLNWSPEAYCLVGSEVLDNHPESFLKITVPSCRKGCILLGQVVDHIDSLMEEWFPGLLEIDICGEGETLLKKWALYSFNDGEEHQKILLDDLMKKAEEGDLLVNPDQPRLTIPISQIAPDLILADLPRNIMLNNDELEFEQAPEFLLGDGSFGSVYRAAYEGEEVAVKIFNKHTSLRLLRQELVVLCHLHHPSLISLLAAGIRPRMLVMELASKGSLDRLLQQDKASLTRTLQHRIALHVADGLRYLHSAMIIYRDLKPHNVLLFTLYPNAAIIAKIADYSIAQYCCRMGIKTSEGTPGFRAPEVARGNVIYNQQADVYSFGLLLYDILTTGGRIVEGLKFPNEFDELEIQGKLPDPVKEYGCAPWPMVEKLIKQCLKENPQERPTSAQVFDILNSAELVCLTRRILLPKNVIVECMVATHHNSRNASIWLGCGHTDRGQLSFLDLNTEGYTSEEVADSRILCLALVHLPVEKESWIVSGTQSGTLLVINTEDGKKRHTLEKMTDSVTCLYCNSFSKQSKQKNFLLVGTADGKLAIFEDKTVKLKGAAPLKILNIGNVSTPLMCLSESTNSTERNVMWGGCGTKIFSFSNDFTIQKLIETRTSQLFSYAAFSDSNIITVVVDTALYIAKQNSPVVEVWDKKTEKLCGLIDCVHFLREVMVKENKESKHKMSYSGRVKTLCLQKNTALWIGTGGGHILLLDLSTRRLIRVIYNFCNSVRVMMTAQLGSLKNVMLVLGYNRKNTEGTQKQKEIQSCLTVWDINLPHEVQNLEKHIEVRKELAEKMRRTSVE
For orientation: Time-resolved FRET reads energy transfer from a long-lived donor to a nearby acceptor.

On to `CC1(C)CCC(C(=O)Nc2cc3cc(C4CCC(N5CCC(F)C5)CC4)c(Cl)cc3cn2)CO1` (single isomer, unassigned) [Ex-5.18, N-(7-chloro-6-(4-(3-fluoropyrrolidin-1-yl)cyclohexyl)isoquinolin-3-yl)-6,6-dimethyltetrahydro-2H-pyran-3-carboxamide], for which the IC50 is 1020 nM.

For the compound `Cn1cc(C(=O)Nc2cc3cc(C4CCN([C@]5(C)COC[C@@H]5O)CC4)c(Cl)cc3cn2)cn1` (single isomer, unassigned) [Ex-12.6, N-(7-chloro-6-(1-(4-hydroxy-3-methyltetrahydrofuran-3-yl)piperidin-4-yl)isoquinolin-3-yl)-1-methyl-1H-pyrazole-4-carboxamide], the IC50 is 0.776 nM.

For `O=C(Nc1cc2cc(C3CCC(N4CC(F)C4)CC3)c(Cl)cc2cn1)C1CC1c1ccccn1` (single isomer, unassigned) [Ex-5.2, (1R,2R or 1S,2S)-N-(7-chloro-6-((cis or trans)-4-(3-fluoroazetidin-1-yl)cyclohexyl)isoquinolin-3-yl)-2-(pyridin-2-yl)cyclopropane-1-carboxamide], the IC50 was 661 nM.

Consider `Cn1cc(C2CC2C(=O)Nc2cc3cc(C4CC(N5CC(F)C5)C4)c(Cl)cc3cn2)cn1` (single isomer, unassigned) [Ex-5.26, N-(7-chloro-6-(3-(3-fluoroazetidin-1-yl)cyclobutyl)isoquinolin-3-yl)-2-(1-methyl-1H-pyrazol-4-yl)cyclopropane-1-carboxamide], for which the IC50 is 2.34 nM.

On to `CC1(N2CCC(c3cc4cc(NC(=O)C5C6COCC65)ncc4cc3Cl)CC2)COCC1O` (centres unmarked) [Ex-2.15], for which the IC50 is 0.214 nM.

Take `CC1(N2CCC(c3cc4cc(NC(=O)C5CC56CCOC6)ncc4cc3Cl)CC2)COCC1F` (single isomer, unassigned) [Ex-6.5, (R or S)-N-(7-chloro-6-(1-((3R,4R or 3S,4S)-4-fluoro-3-methyltetrahydrofuran-3-yl)piperidin-4-yl)isoquinolin-3-yl)-5-oxaspiro [2.4] heptane-1-carboxamide]: the IC50 is 0.537 nM.

Turning to `O=C(Nc1cc2cc(C3CCN(C4COC4)CC3)c(Cl)cc2cn1)[C@@H]1C[C@@H](O)[C@H](F)C1` [Ex-1.12, (1R,3R,4R)-N-(7-chloro-6-(1-(oxetan-3-yl)piperidin-4-yl)isoquinolin-3-yl)-3-fluoro-4-hydroxycyclopentane-1-carboxamide], the IC50 was 9.33 nM.

In the case of `CC1(N2CCC(c3cc4cc(NC(=O)Cc5cccnc5)ncc4cc3Cl)CC2)COCC1O` (centres unmarked) [Ex-3.7], the IC50 is 0.0813 nM.

As to `N#CC1(c2ccc3cnc(NC(=O)C4CCN(C(=O)C(F)(F)F)CC4)cc3c2)CC12CC2` (single isomer, unassigned) [Ex-1.30, N-(6-((R or S)-1-cyanospiro[2.2]pentan-1-yl)isoquinolin-3-yl)-1-(2,2,2-trifluoroacetyl)piperidine-4-carboxamide], the IC50 was 14.1 nM.

Turning to `CC(C)n1nccc1C1CC1C(=O)Nc1cc2cc(C3CCN(C4(C)COCC4O)CC3)c(Cl)cc2cn1` (single isomer, unassigned) [Ex-4.64, N-(7-chloro-6-(1-(4-hydroxy-3-methyltetrahydrofuran-3-yl)piperidin-4-yl)isoquinolin-3-yl)-2-(1-isopropyl-1H-pyrazol-5-yl)cyclopropane-1-carboxamide], the IC50 is 2.45 nM.

For `CC1(C)CC(C(=O)Nc2cc3cc(C4(C#N)CC45CC5)ccc3cn2)CCO1` (centres unmarked) [Ex-2.57], the IC50 was 2.14 nM.

Regarding `N#CC1(c2cc3cc(NC(=O)C4CC4)ncc3cc2F)CC12CC2` (single isomer, unassigned) [Ex-18.10, (R or S)-N-(6-(1-cyanospiro[2.2]pentan-1-yl)-7-fluoroisoquinolin-3-yl)cyclopropanecarboxamide], the IC50 is 12.6 nM.

With `Cc1cc2cnc(NC(=O)C3CC3c3ccccn3)cc2cc1C1CCN(C2(C)COCC2F)CC1` (single isomer, unassigned) [Ex-13.3, (1R,2R or 1S,2S)-N-(6-(1-((3R,4R or 3S,4S)-4-fluoro-3-methyltetrahydrofuran-3-yl)piperidin-4-yl)-7-methylisoquinolin-3-yl)-2-(pyridin-2-yl)cyclopropane-1-carboxamide], the IC50 is 0.501 nM.

`CC1C(C(=O)Nc2cc3cc(C4CCN(C5(C)COCC5O)CC4)c(Cl)cc3cn2)C1c1ccccn1` (single isomer, unassigned) [Ex-4.51, N-(7-chloro-6-(1-(4-hydroxy-3-methyltetrahydrofuran-3-yl)piperidin-4-yl)isoquinolin-3-yl)-2-methyl-3-(pyridin-2-yl)cyclopropane-1-carboxamide]: the IC50 was 83.2 nM.

`CC1(N2CCC(c3cc4cc(NC(=O)C5CC56CCOCC6)ncc4cc3F)CC2)COCC1O` (single isomer, unassigned) [Ex-8.3, N-(7-fluoro-6-(1-(4-hydroxy-3-methyltetrahydrofuran-3-yl)piperidin-4-yl)isoquinolin-3-yl)-6-oxaspiro[2.5]octane-1-carboxamide]: the IC50 was 0.195 nM.

For `CC(C)(F)C1CC1C(=O)Nc1cc2cc(C3CCN(C4(C)COCC4O)CC3)c(Cl)cc2cn1` (single isomer, unassigned) [Ex-4.47, N-(7-chloro-6-(1-(4-hydroxy-3-methyltetrahydrofuran-3-yl)piperidin-4-yl)isoquinolin-3-yl)-2-(2-fluoropropan-2-yl)cyclopropane-1-carboxamide], the IC50 was 2 nM.

Turning to `CC1CC1C(=O)Nc1cc2cc(C3CCN(C4COC4)CC3)c(Cl)cc2cn1` (single isomer, unassigned) [Ex-9.6, N-(7-chloro-6-(1-(oxetan-3-yl)piperidin-4-yl)isoquinolin-3-yl)-2-methylcyclopropane-1-carboxamide], the IC50 is 8.91 nM.

`CC1(N2CCC(c3cc4cc(NC(=O)C5CC56CCOC6)ncc4cc3Cl)CC2)COCC1F` (single isomer, unassigned) [Ex-6.7, (R or S)-N-(7-chloro-6-(1-((3R,4R or 3S,4S)-4-fluoro-3-methyltetrahydrofuran-3-yl)piperidin-4-yl)isoquinolin-3-yl)-5-oxaspiro [2.4] heptane-1-carboxamide]: the IC50 is 1.82 nM.

For the compound `CC(C)(O)C1CC1C(=O)Nc1cc2cc(C3CCN(C4(C)CCOC4)CC3)c(Cl)cc2cn1` (single isomer, unassigned) [Ex-6.14, N-(7-chloro-6-(1-(3-methyltetrahydrofuran-3-yl)piperidin-4-yl)isoquinolin-3-yl)-2-(2-hydroxypropan-2-yl)cyclopropane-1-carboxamide], the IC50 is 2.69 nM.

Turning to `O=C(Nc1cc2cc(C3CCN(C4COC4)CC3)c(Cl)cc2cn1)C1CC1` [Ex-7.6, N-(7-chloro-6-(1-(oxetan-3-yl)piperidin-4-yl)isoquinolin-3-yl)cyclopropanecarboxamide], the IC50 was 2.14 nM.

Take `CC1(N2CCC(c3cc4cc(NC(=O)C5C6CCOCC65)ncc4cc3Cl)CC2)COCC1F` (single isomer, unassigned) [Ex-6.40, N-(7-chloro-6-(1-(4-fluoro-3-methyltetrahydrofuran-3-yl)piperidin-4-yl)isoquinolin-3-yl)-3-oxabicyclo[4.1.0]heptane-7-carboxamide]: the IC50 is 0.0813 nM.

With `CC1(N2CCC(c3cc4cc(NC(=O)c5cnn(C6CC6)c5Cl)ncc4cc3Cl)CC2)COCC1O` (single isomer, unassigned) [Ex-1.50, 5-chloro-N-(7-chloro-6-(1-((3R,4R or 3S,4S)-4-hydroxy-3-methyltetrahydrofuran-3-yl)piperidin-4-yl)isoquinolin-3-yl)-1-cyclopropyl-1H-pyrazole-4-carboxamide], the IC50 was 0.0813 nM.

Regarding `CC1(C)CC(C(=O)Nc2cc3cc(C4CCN(C5(C)CCOC5)CC4)c(Cl)cc3cn2)CCO1` (single isomer, unassigned) [Ex-6.46, N-(7-chloro-6-(1-(3-methyltetrahydrofuran-3-yl)piperidin-4-yl)isoquinolin-3-yl)-2,2-dimethyltetrahydro-2H-pyran-4-carboxamide], the IC50 is 1.2 nM.

Consider `CCC1C(C(=O)Nc2cc3cc(C4CCC(N5CC(C)(F)C5)CC4)c(Cl)cc3cn2)C1c1cnn(C)c1` (single isomer, unassigned) [Ex-11.2, (1R,2R,3R) or (1R,2S,3R) or (1S,2R,3S) or (1S,2S,3S)-N-(7-chloro-6-((cis or trans)-4-(3-fluoro-3-methylazetidin-1-yl)cyclohexyl)isoquinolin-3-yl)-2-ethyl-3-(1-methyl-1H-pyrazol-4-yl)cyclopropane-1-carboxamide], for which the IC50 was 9.12 nM.

Take `Cc1cc2cnc(NC(=O)C3CC34CCOC4)cc2cc1C1CCN(C2(C)COCC2F)CC1` (single isomer, unassigned) [Ex-15.8, N-(6-(1-(4-fluoro-3-methyltetrahydrofuran-3-yl)piperidin-4-yl)-7-methylisoquinolin-3-yl)-5-oxaspiro[2.4]heptane-1-carboxamide]: the IC50 was 219 nM.

In the case of `CCC1C(C(=O)Nc2cc3cc(C4CCN(C5(C)COCC5F)CC4)c(Cl)cc3cn2)C1c1cnn(C)c1` (single isomer, unassigned) [Ex-1.34, (1R,2R,3R or 1R,2S,3R or 1S,2R,3S, or 1S,2S,3S)-N-(7-chloro-6-(1-((3R,4R or 3S,4S)-4-fluoro-3-methyltetrahydrofuran-3-yl)piperidin-4-yl)isoquinolin-3-yl)-2-ethyl-3-(1-methyl-1H-pyrazol-4-yl)cyclopropane-1-carboxamide], the IC50 is 0.0813 nM.
